pIC50: −log10 of the molar value.
Key:
HCT116 WT cells = experiment: HCT116 WT cell proliferation / viability (CellTiter-Glo, 6 days); format: cell-based; settings: Homo sapiens, HCT-116, 144 h, HCT116 WT cells, 6 days, CellTiter-Glo; read-out: HCT-116 WT IC50
Description: (§1) HCT116 MTAP null and WT cells were seeded in 96-well tissue culture plates in RPMI 1640 media+10% fetal bovine serum. Plates were incubated overnight at 37° C. and 5% CO2. Cells were then treated with an 8- or 9-point serial dilution of compound, using a top concentration of 1, or 10 μM, 1:3 serial dilution steps and, a DMSO-only control. Cells were incubated in the presence of drug for 6 days. Effects on cell viability were measured with the CellTiter-Glo® Luminescent Cell Viability Assay (Promega) per manufacturer's recommendation. Assay plates were read on an EnVision™ Multilabel Reader using the Ultra-Sensitive luminescence module. IC50 values were calculated with GraphPad Prism v 5.01 using symmetrical sigmoidal dose-response least squares fit with Hill slope fixed to −1 and top constrain to 100% or GeneData Screener using a 4-parameter logistic model to fit dose response curves.
(§2) Alternatively, compounds could be assayed with a 384 well plate format:
(§3) Compounds were pre-spotted into 384 well plates with a 22-point serial dilution of compound, using a top concentration of 10 or 50 μM, 1:2 serial dilution steps and, a DMSO-only control. HCT116 MTAP null and WT cells were then seeded as above and after 6 days effects on cell viability were measured with the CellTiter-Glo® Luminescent Cell Viability Assay (Promega). Assay plates were read as above and IC50 values were calculated with GeneData Screener using a 4-parameter logistic model to fit dose response curves. The reported IC50 represents the value where the curve transits 50% of control.

HCT116 MTAP null cells = experiment: HCT116 MTAP null cell proliferation / viability (CellTiter-Glo, 6 days); format: cell-based; settings: HCT116-MTAP null, 144 h, HCT116 MTAP null cells, 6 days, CellTiter-Glo; read-out: HCT-116 MTAP null IC50
Description: as §1, §2, §3

SMILES	pIC50 (HCT116 WT cells)	pIC50 (HCT116 MTAP null cells)
CC1OCc2c1c(N)nc1cnc(C(=O)N(C)Cc3ccc(Br)cn3)cc21 (racemic) [Example 433, (3R)-4-amino-N-((5-bromo-2-pyridinyl)methyl)-N,3-dimethyl-1,3-dihydrofuro[3,4-c][1,7]naphthyridine-8-carboxamide and (3S)-4-amino-N-((5-bromo-2-pyridinyl)methyl)-N,3-dimethyl-1,3-dihydrofuro[3,4-c][1,7]naphthyridine-8-carboxamide]	4.67	6.46
COCC(C)N(Cc1ccc(C(F)(F)F)nn1)C(=O)c1cc2c3c(c(N)nc2cc1Cl)COC3 (racemic) [Example 487, 4-amino-7-chloro-N-((2R)-1-methoxy-2-propanyl)-N-((6-(trifluoromethyl)-3-pyridazinyl)methyl)-1,3-dihydrofuro[3,4-c]quinoline-8-carboxamide and 4-amino-7-chloro-N-((2S)-1-methoxy-2-propanyl)-N-((6-(trifluoromethyl)-3-pyridazinyl)methyl)-1,3-dihydrofuro[3,4-c]quinoline-8-carboxamide]	5.86	7.06
COCC(C)N(Cc1ccc(C(F)(F)F)nn1)C(=O)c1cc2c3c(c(N)nc2cc1F)COC3 (racemic) [Example 488, 4-amino-7-fluoro-N-((2R)-1-methoxy-2-propanyl)-N-((6-(trifluoromethyl)-3-pyridazinyl)methyl)-1,3-dihydrofuro[3,4-c]quinoline-8-carboxamide and 4-amino-7-fluoro-N-((2S)-1-methoxy-2-propanyl)-N-((6-(trifluoromethyl)-3-pyridazinyl)methyl)-1,3-dihydrofuro[3,4-c]quinoline-8-carboxamide]	6.16	7.31
Cc1noc2c1c(N)nc1ccc(C(=O)N(Cc3ccc(C(F)(F)F)cn3)C(C)c3ncccn3)cc12 (racemic) [Example 619, 4-amino-3-methyl-N-((1R)-1-(2-pyrimidinyl)ethyl)-N-((5-(trifluoromethyl)-2-pyridinyl)methyl)[1,2]oxazolo[4,5-c]quinoline-8-carboxamide and 4-amino-3-methyl-N-((1S)-1-(2-pyrimidinyl)ethyl)-N-((5-(trifluoromethyl)-2-pyridinyl)methyl)[1,2]oxazolo[4,5-c]quinoline-8-carboxamide]	5.97	7.21
COCC(C)N(Cc1ccc(C(F)(F)F)cn1)C(=O)c1ccc2nc(N)c3c(C)noc3c2c1 (racemic) [Example 634, 4-amino-N-((2R)-1-methoxy-2-propanyl)-3-methyl-N-((5-(trifluoromethyl)-2-pyridinyl)methyl)[1,2]oxazolo[4,5-c]quinoline-8-carboxamide and 4-amino-N-((2S)-1-methoxy-2-propanyl)-3-methyl-N-((5-(trifluoromethyl)-2-pyridinyl)methyl)[1,2]oxazolo[4,5-c]quinoline-8-carboxamide]	6.02	7.47
COCC(C1CC1)N(Cc1ccc(Br)nn1)C(=O)c1ccc2nc(N)c3sccc3c2c1 (racemic) [Example 639, 4-amino-N-((6-bromo-3-pyridazinyl)methyl)-N-((1R)-1-cyclopropyl-2-methoxyethyl)thieno[2,3-c]quinoline-8-carboxamide and 4-amino-N-((6-bromo-3-pyridazinyl)methyl)-N-((1S)-1-cyclopropyl-2-methoxyethyl)thieno[2,3-c]quinoline-8-carboxamide]	5.50	6.62

Second part, the compound after the results:

pIC50 (HCT116 WT cells)	pIC50 (HCT116 MTAP null cells)	SMILES
5.68	6.91	N#Cc1ccc(CN(C(=O)c2ccc3nc(N)c4c(c3c2)COC4)C2CCCn3ncnc32)nc1 (racemic) [Example 448, 4-amino-N-((5-cyano-2-pyridinyl)methyl)-N-((8R)-5,6,7,8-tetrahydro[1,2,4]triazolo[1,5-a]pyridin-8-yl)-1,3-dihydrofuro[3,4-c]quinoline-8-carboxamide and 4-amino-N-((5-cyano-2-pyridinyl)methyl)-N-((8S)-5,6,7,8-tetrahydro[1,2,4]triazolo[1,5-a]pyridin-8-yl)-1,3-dihydrofuro[3,4-c]quinoline-8-carboxamide]
5.91	7.38	CC(c1ncccn1)N(Cc1ccc(C2COC2)cc1)C(=O)c1ccc2nc(N)c3c(c2c1)COC3 (racemic) [Example 449, 4-amino-N-(4-(3-oxetanyl)benzyl)-N-((1R)-1-(2-pyrimidinyl)ethyl)-1,3-dihydrofuro[3,4-c]quinoline-8-carboxamide and 4-amino-N-(4-(3-oxetanyl)benzyl)-N-((1S)-1-(2-pyrimidinyl)ethyl)-1,3-dihydrofuro[3,4-c]quinoline-8-carboxamide]
6.52	7.54	CO[C@@H]1COCC[C@H]1N(Cc1ccc(C(F)(F)F)cn1)C(=O)c1ccc2nc(N)c3c(c2c1)COC3 (racemic) [Example 459, 4-amino-N-((3R,4S)-3-methoxytetrahydro-2H-pyran-4-yl)-N-((5-(trifluoromethyl)-2-pyridinyl)methyl)-1,3-dihydrofuro[3,4-c]quinoline-8-carboxamide and 4-amino-N-((3S,4R)-3-methoxytetrahydro-2H-pyran-4-yl)-N-((5-(trifluoromethyl)-2-pyridinyl)methyl)-1,3-dihydrofuro[3,4-c]quinoline-8-carboxamide]
6.54	7.72	CO[C@@H]1CCOC[C@H]1N(Cc1ccc(C(F)(F)F)cn1)C(=O)c1ccc2nc(N)c3c(c2c1)COC3 (racemic) [Example 460, 4-amino-N-((3R,4R)-4-methoxytetrahydro-2H-pyran-3-yl)-N-((5-(trifluoromethyl)-2-pyridinyl)methyl)-1,3-dihydrofuro[3,4-c]quinoline-8-carboxamide and 4-amino-N-((3S,4S)-4-methoxytetrahydro-2H-pyran-3-yl)-N-((5-(trifluoromethyl)-2-pyridinyl)methyl)-1,3-dihydrofuro[3,4-c]quinoline-8-carboxamide]
< 5.00	6.09	CC(CF)N(Cc1ccc(C#N)cn1)C(=O)c1ccc2nc(N)c3c(c2c1)COC3 (racemic) [Example 473, 4-amino-N-((5-cyano-2-pyridinyl)methyl)-N-((2R)-1-fluoro-2-propanyl)-1,3-dihydrofuro[3,4-c]quinoline-8-carboxamide and 4-amino-N-((5-cyano-2-pyridinyl)methyl)-N-((2S)-1-fluoro-2-propanyl)-1,3-dihydrofuro[3,4-c]quinoline-8-carboxamide]
6.38	7.74	CC(c1ncccn1)N(Cc1ccc(C#N)cn1)C(=O)c1ccc2nc(N)c3c(c2c1)COC3 (racemic) [Example 616, 4-amino-N-((5-cyano-2-pyridinyl)methyl)-N-((1R)-1-(2-pyrimidinyl)ethyl)-1,3-dihydrofuro[3,4-c]quinoline-8-carboxamide and 4-amino-N-((5-cyano-2-pyridinyl)methyl)-N-((1S)-1-(2-pyrimidinyl)ethyl)-1,3-dihydrofuro[3,4-c]quinoline-8-carboxamide]
6.58	7.48	CC(c1ncccn1)N(Cc1ccc(C(F)(F)F)cn1)C(=O)c1ccc2nc(N)c3c(cnn3C)c2c1 (racemic) [Example 618, 4-amino-3-methyl-N-((1R)-1-(2-pyrimidinyl)ethyl)-N-((5-(trifluoromethyl)-2-pyridinyl)methyl)-3H-pyrazolo[3,4-c]quinoline-8-carboxamide and 4-amino-3-methyl-N-((1S)-1-(2-pyrimidinyl)ethyl)-N-((5-(trifluoromethyl)-2-pyridinyl)methyl)-3H-pyrazolo[3,4-c]quinoline-8-carboxamide]
6.96	7.89	CC(c1ncccn1)N(Cc1ccc(C(F)(F)F)cn1)C(=O)c1ccc2nc(N)c3c(c2c1)COC3 (racemic) [Example 640, 4-amino-N-((1R)-1-(2-pyrimidinyl)ethyl)-N-((5-(trifluoromethyl)-2-pyridinyl)methyl)-1,3-dihydrofuro[3,4-c]quinoline-8-carboxamide and 4-amino-N-((1S)-1-(2-pyrimidinyl)ethyl)-N-((5-(trifluoromethyl)-2-pyridinyl)methyl)-1,3-dihydrofuro[3,4-c]quinoline-8-carboxamide]
< 5.00	< 5.00	CC(CF)N(Cc1ccc(C#N)cn1)C(=O)c1cc2c3c(c(N)nc2cn1)COC3 (racemic) [Example 687, 4-amino-N-((5-cyano-2-pyridinyl)methyl)-N-((2R)-1-fluoro-2-propanyl)-1,3-dihydrofuro[3,4-c][1,7]naphthyridine-8-carboxamide and 4-amino-N-((5-cyano-2-pyridinyl)methyl)-N-((2S)-1-fluoro-2-propanyl)-1,3-dihydrofuro[3,4-c][1,7]naphthyridine-8-carboxamide]
